Data on one molecule can be found in paper PMC7434893 (British Journal of Cancer, 2020).

Each structure is given as a SMILES string.

For orientation: IC50 means the concentration that inhibits the measured activity by half. Read a low IC50 as inhibition by little substance.

The subject of experiment [1] is advanced solid tumours. Description: Clinical outcome by 2X-121 DRP prediction. It counts as in vivo, human. The text has this: Matching baseline transcriptome and growth inhibition data were available for 61 of the 74 cell lines, and were used to develop a DRP as previously described.[21],[22] Briefly, IC50 values in the 61 cell lines were correlated to gene-expression levels in the same cell lines; 172 genes with a Pearson correlation above 0.25 were retained as potential markers of sensitivity, while 242 genes with a Pearson correlation below −0.25 were retained as potential markers of resistance. The 414 genes were searched in PubMed for known associations to DNA damage response or Wnt/β-catenin pathways. The 111 pathway-associated genes are shown in Supplementary Table 2. Archival biopsies, in the form of formalin-fixed paraffin-embedded blocks and slides, were obtained from patients in the trial. Only those samples that yielded RNA of sufficient quantity and quality were evaluated for gene expression. The expression of the 414 genes in the 2X-121 DRP was analysed via a custom Affymetrix U133_Plus2 microarray according to the manufacturer’s instructions. The 2X-121 DRP was applied in a blinded manner following a prespecified analysis plan. The difference between the means of the genes that were positively correlated and those negatively correlated to response was used as a single prediction score for each patient, after normalisation to a range of 0–100.
As a first-in-human phase 1 clinical trial, no formal sample-size calculation or hypothesis testing was undertaken. Analysis of biomarker predictions was performed using a 1-sided Pearson correlation test and a 1-sided log-rank test for time-to-event data according to a prespecified analysis plan.

For experiment [2], the system named is Mino. Description: 8-day growth inhibition. To be noted: MCL, 8-day assay. It counts as cell-based.
Setting [3] is: 6 patients predicted sensitive by 2X-121 DRP (cut-off 50).
[4] abbreviates: 7 patients predicted not sensitive by 2X-121 DRP.

In the case of `O=c1[nH]nc2c3c(cccc13)N=C(CN1Cc3ccccc3C1)N2` [E7449], the Median overall survival in experiment [1] (setting [3]) was above 800 days; in experiment [1] (setting [4]), 208 days. Moreover, the “Median time to progression” value is 296 days in experiment [1] (setting [3]) and 155 days in experiment [1] (setting [4]). Also, in experiment [2], the IC50 was determined as 3.4 µM.
